Laboratory results published in patent publication US10143201B2, “Fungicidal compositions” (Syngenta Crop Protection LLC, priority 2007, dated 2018).
Read-outs that look alike come from different tables or passages of the source.

How the values were obtained:
Assay type in all cases: cell-based
[1] = system: Gaeumannomyces graminis; assay: Fungicidal action against Gaeumannomyces graminis (take-all of cereals), microtiter growth inhibition; details: Gaeumannomyces graminis; for inhibition at 0.0039 ppm / inhibition at 0.0078 ppm / inhibition at 0.0313 ppm / inhibition at 0.0625 ppm: read-out: % activity; for inhibition at 0.25 ppm: 0.2500 ppm; for inhibition at 0.5 ppm: 0.5000 ppm
Procedure: Example B7: Fungicidal Action Against Gaeumannomyces graminis (Take-all of Cereals)
(§1) Mycelial fragments of the fungus from cryogenic storage are directly mixed into nutrient broth (PDB potato dextrose broth). After placing a (DMSO) solution of the test compounds into a microtiter plate (96-well format) the nutrient broth containing the fungal spores is added. The test plates are incubated at 24 C and the inhibition of growth is evaluated after 4 days.

[2] = system: Cercospora arachidicola (syn. Mycosphaerella arachidis); assay: Fungicidal action against Cercospora arachidicola (brown leaf spot of groundnut), microtiter growth inhibition; details: Mycosphaerella arachidis
Procedure: Example B8: Fungicidal Action Against Cercospora arachidicola (Syn. Mycosphaerella arachidis), Brown Leaf Spot of Groundnut (Peanut)
as §1, with “Conidia of” for “Mycelial fragments of”, “after 7” for “after 4”

[3] = system: Septoria tritici; assay: Fungicidal action against Septoria tritici (leaf blotch), microtiter growth inhibition
Procedure: Example B3: Fungicidal Action Against Septoria tritici (Leaf Blotch)
as §1, with “Conidia” for “Mycelial fragments”, “24° C.” for “24 C”, “days. The expected fungicidal action is calculated according to the Colby method.” for “days.”

[4] = system: Botrytis cinerea; assay: Fungicidal action against Botrytis cinerea (gray mould), microtiter growth inhibition
Procedure: Example B2: Fungicidal Action Against Botrytis cinerea (Gray Mould)
as §1, with “Conidia” for “Mycelial fragments”, “24° C.” for “24 C”, “days. The expected fungicidal action is calculated according to the Colby method.” for “days.”

[5] = system: Alternaria solani; assay: Fungicidal action against Alternaria solani (early blight tomato/potato), microtiter growth inhibition
Procedure: Example B4: Fungicidal Action Against Alternaria solani (Early Blight Tomato/Potato)
as §1, with “Conidia” for “Mycelial fragments”, “24° C.” for “24 C”, “3” for “4”, “days. The expected fungicidal action is calculated according to the Colby method.” for “days.”

[6] = system: Pyrenophora teres; assay: Fungicidal action against Pyrenophora teres (net blotch), microtiter growth inhibition; details: for % activity: alone; for inhibition at 0.5 ppm / inhibition at 1 ppm / inhibition at 0.0625 ppm / inhibition at 0.125 ppm: read-out: % activity; for inhibition at 0.25 ppm: 0.2500 ppm
Procedure: Example B6: Fungicidal Action Against Pyrenophora teres (Net Blotch)
as §1, with “Conidia” for “Mycelial fragments”, “24° C.” for “24 C”, “days. The expected fungicidal action is calculated according to the Colby method.” for “days.”

[7] = system: Pseudocercosporella herpotrichoides (syn. Tapesia yallundae); assay: Fungicidal action against Pseudocercosporella herpotrichoides (eye spot of cereals), microtiter growth inhibition; details: Oculimacula yallundae; for inhibition at 0.125 ppm: 0.1250 ppm
Procedure: Example B5: Funicidal Action Against Pseudocercosporella herpotrichoides (Syn. Tapesia yallundae), Eye Spot of Cereals
as §1, with “Conidia” for “Mycelial fragments”, “24° C.” for “24 C”, “days. The expected fungicidal action is calculated according to the Colby method.” for “days.”

[8] = Zymoseptoria tritici, read-out: % activity
[9] = Pyrenophora teres, compound alone, 0.0625 ppm
[10] = Pyrenophora teres, compound alone, 0.1250 ppm
[11] = Pyrenophora teres, compound alone
[12] = Pyrenophora teres, compound alone, 0.5000 ppm
[13] = Botrytis cinerea, read-out: % activity

Compound: O=C(NCCc1ncc(C(F)(F)F)cc1Cl)c1ccccc1C(F)(F)F [Compound B-5.12, N-{2-[3-chloro-5-(trifluoromethyl)pyridin-2-yl]ethyl}-2-(trifluoromethyl)benzamid]
- inhibition at 0.0039 ppm ([1]; compound alone, 0.0039 ppm): 0%
- inhibition at 0.0078 ppm ([1]; compound alone, 0.0078 ppm): 0%
- inhibition at 0.0156 ppm ([1]; compound alone): 0%
- inhibition at 0.0313 ppm ([1]; compound alone, 0.0313 ppm): 0%
- inhibition at 0.125 ppm ([1]; compound alone, 0.1250 ppm): 0%
- inhibition at 0.25 ppm ([1]; compound alone): 0%
- inhibition at 0.5 ppm ([1]; compound alone): 0%
- inhibition at 1 ppm ([1]; compound alone, 1.0000 ppm): 0%
- inhibition at 2 ppm ([1]; compound alone, 2.0000 ppm): 0%
- inhibition at 0.0313 ppm ([2]; compound alone, 0.0313 ppm): 0%
- inhibition at 0.0625 ppm ([2]; compound alone): 0%
- inhibition at 0.125 ppm ([2]; compound alone, 0.1250 ppm): 20%
- inhibition at 0.25 ppm ([2]; compound alone, 0.2500 ppm): 20%

Compound: CO/C=C(/C(=O)OC)c1ccccc1Oc1cc(Oc2ccccc2C#N)ncn1 [Azoxystrobin, azoxystrobin]
- % activity ([3]; 0.0625 ppm, alone): 70%
- % activity ([4]; 0.1250 ppm, alone): 0%
- % activity ([4]; 0.2500 ppm, alone): 0%
- % activity ([4]; 0.5000 ppm, alone): 0%
- % activity ([4]; 1.0000 ppm, alone): 0%
- % activity ([4]; 2.0000 ppm, alone): 0%
- % activity ([5]; 0.0156 ppm, alone): 20%
- % activity ([5]; 0.0313 ppm, alone): 20%
- % activity ([5]; 0.0625 ppm, alone): 20%
- % activity ([5]; 0.2500 ppm, alone): 50%
- % activity ([5]; 0.5000 ppm, alone): 50%
- % activity ([6]; 0.0313 ppm): 20%
- % activity ([6]; 0.0625 ppm): 50%
- % activity ([6]; 0.1250 ppm): 70%

Compound: C#CCOc1ccc(CCNC(=O)C(OCC#C)c2ccc(Cl)cc2)cc1OC (stereo not drawn) [Mandipropamid, mandipropamid]
- inhibition at 0.125 ppm [3, 8]: 0%
- inhibition at 0.25 ppm [3, 8]: 0%
- inhibition at 0.5 ppm [3, 8]: 0%
- inhibition at 0.0039 ppm [1]: 0%
- inhibition at 0.0078 ppm [1]: 0%
- inhibition at 0.0313 ppm [1]: 0%
- inhibition at 0.0625 ppm [1]: 0%
- inhibition at 0.5 ppm ([6]; Pyrenophora teres): 0%
- inhibition at 1 ppm ([6]; Pyrenophora teres): 0%
- inhibition at 0.0039 ppm ([2]; read-out: % activity): 0%
- inhibition at 0.0078 ppm ([2]; read-out: % activity): 0%

Compound: CC(Cc1ccc(C(C)(C)C)cc1)CN1CCCCC1 (stereo not drawn) [Fenpropidin, fenpropidin]
- inhibition at 0.5 ppm ([4]; Botrytis cinerea, 0.5000 ppm, alone): 0%
- inhibition at 1 ppm ([4]; Botrytis cinerea, 1.0000 ppm, alone): 0%
- inhibition at 2 ppm ([4]; Botrytis cinerea, 2.0000 ppm, alone): 0%
- inhibition at 0.125 ppm ([5]; Alternaria solani, 0.1250 ppm, alone): 0%
- inhibition at 0.25 ppm ([5]; Alternaria solani, 0.2500 ppm, alone, read-out: % activity): 0%
- inhibition at 0.5 ppm ([5]; Alternaria solani, 0.5000 ppm, alone, read-out: % activity): 0%
- inhibition at 1 ppm ([5]; Alternaria solani, 1.0000 ppm, alone): 0%
- inhibition at 0.0625 ppm [6, 9]: 0%
- inhibition at 0.125 ppm [6, 10]: 0%
- inhibition at 0.25 ppm [6, 11]: 0%
- inhibition at 0.5 ppm [6, 12]: 0%
- inhibition at 2 ppm ([6]; Pyrenophora teres, compound alone, 2.0000 ppm): 0%
- inhibition at 0.0156 ppm ([7]; 0.0156 ppm, alone, read-out: % activity): 0%
- inhibition at 0.0313 ppm ([7]; 0.0313 ppm, alone): 0%
- inhibition at 0.0625 ppm ([7]; 0.0625 ppm, alone): 0%
- inhibition at 0.125 ppm ([7]; alone): 0%
- inhibition at 0.25 ppm ([7]; 0.2500 ppm, alone, read-out: % activity): 0%

Compound: N#Cc1c[nH]cc1-c1cccc2c1OC(F)(F)O2 [Fludioxonil, fludioxonil]
- inhibition at 0.0625 ppm [3, 8]: 0%
- inhibition at 0.125 ppm [3, 8]: 0%
- inhibition at 0.0313 ppm [4, 13]: 0%
- inhibition at 0.0625 ppm [4, 13]: 20%
- inhibition at 0.125 ppm [4, 13]: 90%
- inhibition at 0.0078 ppm ([5]; Alternaria solani, read-out: % activity, 0.0078 ppm, alone): 0%
- inhibition at 0.0156 ppm ([5]; Alternaria solani, read-out: % activity, 0.0156 ppm, alone): 0%
- inhibition at 0.0313 ppm ([5]; Alternaria solani, read-out: % activity, 0.0313 ppm, alone): 0%
- inhibition at 0.0625 ppm ([5]; Alternaria solani, read-out: % activity, 0.0625 ppm, alone): 20%
- inhibition at 0.25 ppm ([5]; Alternaria solani, read-out: % activity, 0.2500 ppm, alone): 50%
- inhibition at 0.5 ppm ([5]; Alternaria solani, read-out: % activity, 0.5000 ppm, alone): 70%
- inhibition at 0.0625 ppm ([6]; Pyrenophora teres): 20%
- inhibition at 0.125 ppm ([6]; Pyrenophora teres): 70%
- inhibition at 0.0078 ppm ([7]; read-out: % activity): 0%
- inhibition at 0.0156 ppm ([7]; read-out: % activity): 0%
- inhibition at 0.25 ppm ([7]; read-out: % activity): 20%
- inhibition at 0.5 ppm ([7]; read-out: % activity): 20%
- inhibition at 1 ppm ([7]; read-out: % activity): 20%
- inhibition at 2 ppm ([7]; read-out: % activity): 20%

Compound: CC1COC(Cn2cncn2)(c2ccc(Oc3ccc(Cl)cc3)cc2Cl)O1 (stereo not drawn) [Difenoconazole, difenoconazole]
- inhibition at 0.0313 ppm ([3]; Zymoseptoria tritici, 0.0313 ppm, alone): 50%
- inhibition at 0.0625 ppm ([3]; Zymoseptoria tritici, 0.0625 ppm, alone, read-out: % activity): 90%
- inhibition at 0.0039 ppm ([1]; compound alone, 0.0039 ppm): 0%
- inhibition at 0.0156 ppm ([1]; compound alone): 0%
- inhibition at 0.0313 ppm ([1]; compound alone, 0.0313 ppm): 0%
- inhibition at 0.0625 ppm ([1]; compound alone, 0.0625 ppm): 0%
- inhibition at 0.0625 ppm [6, 9]: 20%
- inhibition at 0.125 ppm [6, 10]: 50%
- inhibition at 0.25 ppm [6, 11]: 50%
- inhibition at 0.5 ppm [6, 12]: 70%
- inhibition at 1 ppm ([6]; Pyrenophora teres, compound alone, 1.0000 ppm): 70%
- inhibition at 0.125 ppm ([7]; alone): 50%

Compound: OC(Cc1ccccc1Cl)(Cn1nc[nH]c1=S)C1(Cl)CC1 (stereo not drawn) [Prothioconazole]
- inhibition at 0.0625 ppm ([1]; compound alone, 0.0625 ppm): 50%
- inhibition at 0.25 ppm ([1]; compound alone): 90%
- inhibition at 0.5 ppm ([1]; compound alone): 90%
- inhibition at 0.0625 ppm ([2]; compound alone): 70%
